From the NIST ThermoML archive (doi:10.1016/j.fluid.2010.03.010) come the findings set out here.

Several values for one entry are separate records, joined by “and”; a condition that tells them apart may be missing. Equal entries are not always repeated.

The data set in a line: xn = mol fraction of the nth substance listed. The settings on record: 298.03 K, 101.3 kPa, Liquid, Taylor dispersion method.

Take `CCOS(=O)(=O)[O-].CCn1cc[n+](C)c1` [1-ethyl-3-methylimidazolium ethyl sulfate] + O: under “x1 = 0”, the binary diffusion coefficient is 9.62e-08 m2/s and 9.15e-08 m2/s and 9.84e-08 m2/s and 9.79e-08 m2/s.
With `CCCCn1cc[n+](C)c1.N#CN=C=[N-]` [1-butyl-3-methylimidazolium dicyanamide] + O, the binary diffusion coefficient (x2 = 0) was 2.08e-08 m2/s and 2.13e-08 m2/s and 2.11e-08 m2/s and 2.03e-08 m2/s and 1.98e-08 m2/s and 2.05e-08 m2/s and 2e-08 m2/s and 2.28e-08 m2/s.
The same measure, in the same setting: the result for `CCCC[n+]1ccn(C)c1.O=S(=O)([N-]S(=O)(=O)C(F)(F)F)C(F)(F)F` + O reads 4e-08 m2/s [middle of 4 runs].
